Series [1] concerns adhesion of adoptively-transferred leukocytes in the iridial microcirculation. In words: Adoptive transfer of WT leukocytes into neutrophil-depleted CB2R-/- mice with EIU. Format: in vivo. Particulars: neutrophil-depleted CB2R-/- recipients with EIU, topical. On the procedure:
For adoptive transfer experiments, calcein-AM-labelled leukocytes were visualized by fluorescence (495 nm excitation) in the iridial microcirculation using a Leica DMLM epifluorescence microscope (Leica, Wetzlar, Germany) equipped with a mercury-arc light source (LEG EBQ 100, Carl Zeiss, Jena, Germany) and captured by a CCD video camera (SIT 68, DAGE MTI, Michigan, IN, USA). Videos were recorded using WinDV Capture software (Mourek, Prague, Czech Republic) and stored on an external hard drive.
During IVM animals were placed on a heating pad in a stereotactic frame, and Tear-Gel® (Novartis Pharmaceuticals Canada Inc., Dorval, QC, Canada) was applied to their cornea. The iris was divided into four equal quadrants by drawing two superficial lines on the cornea, lengthwise and widthwise. […] Two to four videos of each quadrant were recorded for 30 s each. Videos were analyzed off-line without knowledge of the treatment groups. […] Using ImageJ software (National Institute of Health, Bethesda, MD, USA) the number of adherent leukocytes within each vessel segment was calculated by measuring the diameter and length of vessel segment studied, assuming a cylindrical geometry of blood vessels. Adherent leukocytes were expressed as number of cells per mm^2 of endothelial surface. […] The number of rolling leukocytes was counted for 30 s and used to calculate the number of rolling leukocytes per min. […]

A short description of series [2]: Plasma protein binding (equilibrium dialysis), human plasma. Type of series: in vitro ADME. Conditions: pH 7.4, read-out: Plasma Protein Binding: FREE Fraction human. On the procedure: Pooled and frozen plasma from selected species were obtained from commercial suppliers […]
(human […] and mouse […]3-C57; BioreclamationIV, NY, USA). Teflon […]
equilibrium dialysis plates (96-well, 150 μL, half-cell capacity) and cellulose membranes (12–14 kDa molecular weight cut-off) were purchased from HT-Dialysis (Gales Ferry, Connecticut). Both biological matrix and phosphate buffer pH were adjusted to 7.4 on the day of the experiment. The reference substance was diazepam.
The determination of unbound compound was performed using a 96-well format equilibrium dialysis device with a molecular weight cut-off membrane of 12 to 14 kDa. […]
At equilibrium, the unbound drug concentration in the biological matrix compartment of the equilibrium dialysis apparatus is the same as the concentration of the compound in the buffer compartment. Thus, the percent unbound fraction was be calculated by determining the compound concentrations in the buffer and matrix compartments after dialysis as follows: % fraction unbound = 100 × buffer concentration after dialysis/matrix concentration after dialysis. […]
P-glycoprotein (permeability-glycoprotein (P-gp), also known as multidrug resistance protein 1) is the most studied and best characterized drug transporter. […] The effect of P-gp was measured by expressing the efflux ratio of the unidirectional A > B and B > A Papp values. […]
A general note: In equilibrium dialysis free small molecules cross a membrane that holds back macromolecules.

For the molecule `CC(C)(C)c1nc(N2CC[C@H](O)C2)c2nnn(Cc3nnnn3C3CC3)c2n1` [RO6871304, (3S)-1-{5-tert-butyl-3-[(1-cyclopropyl-1H-tetrazol-5-yl)methyl]-3H-[1,2, 3]triazolo[4,5-d]pyrimidin-7-yl}pyrrolidin-3-ol], in series [1], the “adhesion of adoptively-transferred leukocytes” value is reported as “did not affect adhesion of adoptively-transferred leukocytes”. The fraction unbound at 5 h, 1000 nM in series [2] stood at 0.13.

For the origin of these results see article PMC6767236, “Selective Cannabinoid 2 Receptor Agonists as Potential Therapeutic Drugs for the Treatment of Endotoxin-Induced Uveitis” (Molecules, 2019).
